In test [1] the test system is TNF-α induced apoptosis. Put plainly: TNF-α induced apoptosis. The class given is cell-based. To be noted: TNF-α 50 ng/ml + SMAC mimetic 0.5 μM; AOA 0.5 mM.
Test [2] concerns MEFs. Put plainly: Erastin-induced ferroptosis. The class given is cell-based, mouse. The following applies: erastin 1 μM, 12 hrs, DFO 80 μM, CPX 10 μM, 968 20 μM, AOA 0.5 mM, U0126 and PD0325901 10 μM.
Test [3] deals with MEFs. Description: Serum-dependent necrosis (serum-induced cell death) upon amino acid or cystine starvation. The following applies: 12 hrs, NAC 0.2 mM, Trolox 0.2 mM; for inhibition of serum-dependent necrosis (cell viability / cell death): total amino acid starvation in the presence of FBS, GPNA 5 mM, 968 20 μM, AOA 0.5 mM, BPTES 10 μM, DFO 80 μM, CPX 10 μM, BIP 100 μM, cysteine/cystine 0.2 mM, U0126 and PD0325901 10 μM; for inhibition of serum-dependent cell death triggered by cystine starvation: cystine starvation in the presence of serum. The class given is cell-based, mouse. As for the experimental part:
(§1) To induce cell death, 80%-confluent cells were washed with PBS twice, and then cultured in amino acid-free medium, with specific factors added as indicated in individual experiments. Cell death was analyzed by propidium iodide (PI) staining coupled with microscopy or flow cytometry. Alternatively, cell viability was determined using the CellTiter-Glo luminescent Cell Viability Assay (Promega). In assays using WT MEFs, viability was calculated by normalizing ATP levels to cells treated with amino acid-starvation in the presence of 10% (v/v) diFBS, while in assays using bax/bak-DKO MEFs, ATP levels were normalized to cells treated with amino acid and FBS double starvation.

The subject of test [4] is hearts isolated from wild-type mice. Description: Ischemia-reperfusion (I/R) analysis using isolated hearts (ex vivo heart model). The class given is in vivo. The following applies: ex vivo mouse heart, DFO 80 μM; for left ventricular developed pressure (LVDP) recovery at the end of reperfusion / myocardial infarct size (TTC staining): 30 min global ischemia, 60 min reperfusion; for left ventricular developed pressure (LVDP) recovery at the end of reperfusion: 968 25 μM in perfusate, vehicle 43.20%±1.66%; for myocardial infarct size (TTC staining): vehicle 30.82%±0.57%. As for the experimental part:
Male C57BL/6J mice weighing 25-30 g at age 12-14 weeks were used in all experiments and maintained in a temperature-controlled room with alternating 12:12-h light-dark cycles. Experiments were performed using an isovolumic isolated heart preparation as published and modified for the use in mice hearts ([…] et al., 2009; Hwang et al., 2004). Hearts from 12-14 weeks aged wild-type mice were isolated, and retrograde perfused at 37° C. in a non-recirculating mode through the aorta at a rate of 2.5 ml/min. Hearts were perfused with modified Krebs-Henseleit (KH) buffer (118 mM NaCl, 4.7 mM KCl, 2.5 mM CaCl2, 1.2 mM MgCl2, 25 mM NaHCO3, 5 mM glucose, 0.4 mM palmitate, 0.2 mM glutamine, 10 μg/ml human recombinant transferrin, 0.4 mM BSA, and 70 mU/1 insulin). Left ventricular developed pressure (LVDP) was measured using a latex balloon in the left ventricle. LVDP and coronary perfusion pressure were monitored continuously on a four-channel Gould recorder. Hearts were perfused either with KH buffer containing vehicle (DMSO) or the Compounds throughout the FR protocol. After an equilibration period of 30 min, global ischemia was performed for 30 min followed by 60 minutes of reperfusion. Cardiac injury due to I/R stress was assessed by measuring LDH release in the perfusates that were collected during 60 min of reperfusion. […] After 60 min of reperfusion, the heart is perfused with Evans blue in-situ and then removed. Hearts were sliced into cross-sections at approximately 1-mm intervals. The sections were embedded in the TTC solution at 37° C. for 10 min, and area of infarct as a percent of the whole heart was quantified as described. Functional recovery of LVDP was expressed by comparing to the initial LVDP before ischemia. All animal experiments were approved by the Institutional Animal Care and Use Committees of New York University School of Medicine and conformed to the guidelines outlined in the National Institutes of Health Guide for Care and Use of Laboratory Animals (NIH Pub. No. 85-23, 1996).

A short description of test [5]: 2,2-Diphenyl-1-picrylhydrazyl assay for antioxidant activity. To be noted: compound 50 μM, DPPH 50 μM in methanol, 1 hr, room temperature, absorbance at 517 nm. As for the experimental part: The experiment was performed as described previously (Blois, 1958; Dixon et al., 2012). 2,2-Diphenyl-1-picrylhydrazyl (DPPH) (Sigma Cat#D9132) was dissolved in methanol to a final concentration of 50 μM. The tested compounds were added to 1 ml of DPPH solution with a final concentration of 50 μM. Samples were mixed well and incubated at room temperature for 1 hr. The absorbance at 517 nm (indicating the concentration of non-reduced DPPH) was measured using methanol as control.
(The DPPH test is a chemical assay of radical scavenging.)

The test system of test [6] is MEK1/2. To be noted: MEFs, PD0325901 10 μM, U0126 10 μM, Western blotting. A general note: In western blotting, separated proteins are transferred to a membrane and probed.
Test [7] deals with bax/bak-DKO MEFs. Description: Death-inducing activity of transferrin and L-Gln under amino acid starvation. The class given is cell-based, mouse. To be noted: 12 hrs. As for the experimental part:
as §1

The test system of test [8] is MEFs. Put plainly: Death-inducing activity of serum small molecules under amino acid starvation with diFBS. The class given is cell-based, mouse. To be noted: 12 hrs, α-KG 4 mM also in the presence of AOA 0.5 mM, glucose with diFBS or transferrin. As for the experimental part:
as §1

In test [9] the test system is caspase-3 activation. Put plainly: Caspase-3 activation induced by UV light (Western blot). The test is classed as cell-based.

Peptide text beside a SMILES is read from it. * marks the point of attachment. Cbz = O=C(OCc1ccccc1)*; CH2F = FC*

The values that follow come from patent US20180110770A1, “FERROPTOSIS AND GLUTAMINOLYSIS INHIBITORS AND METHODS OF TREATMENT” (MEMORIAL SLOAN-KETTERING CANCER CENTER, priority 2015, published 2018).

Take `NOCC(=O)O` [AOA, amino-oxyacetate]: the “inhibition of TNF-α induced apoptosis” value in test [1] is reported as “cannot inhibit”. The “inhibition of erastin-induced ferroptosis (PI staining, flow cytometry)” value (“inhibition … (PI staining, flow cytometry)” for short) in test [2] is “can also inhibit”. In addition, the “inhibition of serum-dependent necrosis (cell viability / cell death)” value (shortened to “inhibition … (cell viability / cell death)”) in [3] is “could inhibit”.
As for `O=C(Cc1ccccc1)Nc1nnc(CCSCCc2nnc(NC(=O)Cc3ccccc3)s2)s1` [BETPS, Bis-2-(5-phenylacetamido-1,3 ,4-thiadiazol-2-yl)ethyl sulfide], in test [3], the “inhibition … (cell viability / cell death)” value is listed as “failed to block”.
Regarding `c1ccc(-c2ccccn2)nc1` [BIP, 2,2-bipyridyl], in test [3], the “inhibition … (cell viability / cell death)” value is “blocked”.
For `Cc1cc(C2CCCCC2)n(O)c(=O)c1` [CPX, ciclopirox olamine], the “inhibition … (PI staining, flow cytometry)” value in test [2] was “inhibited”. Further, the “inhibition … (cell viability / cell death)” value in [3] is given as “blocked”.
As for `CN(C)c1ccc(C2Nc3ccc4ccccc4c3C3=C2C(=O)CC(C)(C)C3)cc1Br` (stereo not drawn) [Compound 968], the “left ventricular developed pressure (LVDP) recovery at the end of reperfusion” value in test [4] is recorded as 75.25%±5.75%. Besides, in test [4] (968 25 μM), the “myocardial infarct size (TTC staining)” value is listed as 17.36%±0.47%. Moreover, in test [4] (perfusates collected during 60 min reperfusion, 968 25 μM), the “release of lactate dehydrogenase (LDH) during reperfusion” value is “significantly inhibited”. The “inhibition … (PI staining, flow cytometry)” value in [2] is “can also inhibit”. Also, the “antioxidant activity (reduction of DPPH)” value in [5] is “showed no anti-oxidant function”. Besides, in test [3], the “inhibition … (cell viability / cell death)” value is “completely inhibited”.
With `N#CC(=C(/N)Sc1ccccc1N)/C(C#N)=C(\N)Sc1ccccc1N` [Compound U0126], the “inhibition of MEK1/2 kinase activity” value in [6] is listed as “confirmed the inhibition of MEK1/2 kinase activity”. Further, the “inhibition … (PI staining, flow cytometry)” value in test [2] is “able to block”. Moreover, in test [5], the “antioxidant activity (reduction of DPPH)” value is reported as “anti-oxidative property”. In addition, in test [3], the “inhibition … (cell viability / cell death)” value is listed as “able to block”.
Turning to `CC(=O)N(O)CCCCCNC(=O)CCC(=O)N(O)CCCCCNC(=O)CCC(=O)N(O)CCCCCN` [DFO, Deferoxamine], in [4], the “left ventricular developed pressure (LVDP) recovery at the end of reperfusion” value is listed as 64.75%±4.09%. In [4] (968 25 μM), the “myocardial infarct size (TTC staining)” value is 22.60%±0.97%.
As for `CCOC(=O)c1ccc(NC2CCCCC2)c(N)c1` [Fer-1], in test [3], the “inhibition of serum-dependent cell death triggered by cystine starvation” value (shortened to “inhibition … by cystine starvation”) was “can block” and the “inhibition … (cell viability / cell death)” value is “can block”.
As to `N[C@@H](CCC(=O)Nc1ccc([N+](=O)[O-])cc1)C(=O)O` [GPNA, L-g-glutamyl-p-nitroanilide], the “inhibition … (cell viability / cell death)” value in test [3] is listed as “markedly blocked”.
Turning to `N[C@@H](CCC(=O)N[C@@H](CS)C(=O)NCC(=O)O)C(=O)O` [GSH, glutathione], in [3], the “inhibition … by cystine starvation” value was “effectively blocked” and the “inhibition … (cell viability / cell death)” value is reported as “effectively blocked”.
On to `NC(=O)CC[C@H](N)C(=O)O` [L-Gln, L-glutamine], for which, in [7] (L-Gln 0.1 mM alone), the “induction of cell death by L-Gln alone” value was “induced modest but measurable cell death”. The “induction of cell death in the presence of diFBS” value (“induction … of diFBS” for short) in [8] is recorded as “induced potent cell death”.
On to `CC(=O)N[C@@H](CS)C(=O)O` [NAC, N-acetylcysteine], for which, in [3], the “inhibition … by cystine starvation” value is “effectively blocked” and the “inhibition … (cell viability / cell death)” value is reported as “effectively blocked”.
As for `O=C(NOC[C@H](O)CO)c1ccc(F)c(F)c1Nc1ccc(I)cc1F` [PD0325901], the “antioxidant activity (reduction of DPPH)” value in test [5] is “showed no anti-oxidant function”.
For the molecule `Cc1c(C)c2c(c(C)c1O)CCC(C)(C(=O)O)O2` (stereo not drawn) [Trolox, 6-hydroxy-2,5,7,8-tetramethylchroman-2-carboxylic acid], in test [3], the “inhibition … by cystine starvation” value is recorded as “effectively blocked” and the “inhibition … (cell viability / cell death)” value is on record as “effectively blocked”.
Take `N[C@@H](CS)C(=O)O` [cysteine]: in [3], the “inhibition … (cell viability / cell death)” value was “rescued cells from necrosis”.
`N[C@@H](CSSC[C@H](N)C(=O)O)C(=O)O` [cystine]: the “inhibition … (cell viability / cell death)” value in test [3] is listed as “rescued cells from necrosis”.
For `COC(=O)C[C@H](NC(=O)[C@H](C)NC(=O)[C@@H](NC(=O)OCc1ccccc1)C(C)C)C(=O)CF` [zVAD-FMK] (Cbz-Val-Ala-Asp(OMe)-CH2F), in test [3], the “inhibition … (cell viability / cell death)” value was “failed to block”. In addition, the “block of caspase-3 activation induced by UV light” value in [9] is “can block”.
As to `COC(=O)CCC(=O)C(=O)OC` [α-KG, Dimethyl-α-Ketoglutarate], the “induction … of diFBS” value in [8] is “can induce potent cell death”.
Consider L-alanine-L-glutamine [A-Q], for which the “induction … of diFBS” value in test [8] is “able to induce cell death”.
With “recombinant human holo-transferrin: recombinant human holo-transferrin expressed in rice”, the “induction of cell death in the presence of smFBS” value in test [7] (with smFBS) was “could induce cell death in a dose-dependent manner”.
For the molecule “transferrin: iron carrier protein in serum”, the “cell death on addition of transferrin to L-Gln” value in test [7] (with L-Gln 0.1 mM) was “further enhanced cell death”.
